Laboratory results from publication PMC11525561, “Gliflozins, sucrose and flavonoids are allosteric activators of lecithin-cholesterol acyltransferase” (Scientific Reports, 2024).
Where two headings read alike, the source gives them in different places.

Tests used:
LCAT [1] = target: T1, LCAT (Homo sapiens, UniProt P04180); assay: DHE esterification acyltransferase assay with synthetic HDL (sHDL); type: biochemical; design: 6x histidine-tag (C); made in house; host or cells: 293T cells (ATCC CRL-3216); details: for acyltransferase Emax / Emax: normalized against LCAT + DMSO; for acyltransferase efficiency: kcat divided by Km
T1 sequence (P04180 25-440): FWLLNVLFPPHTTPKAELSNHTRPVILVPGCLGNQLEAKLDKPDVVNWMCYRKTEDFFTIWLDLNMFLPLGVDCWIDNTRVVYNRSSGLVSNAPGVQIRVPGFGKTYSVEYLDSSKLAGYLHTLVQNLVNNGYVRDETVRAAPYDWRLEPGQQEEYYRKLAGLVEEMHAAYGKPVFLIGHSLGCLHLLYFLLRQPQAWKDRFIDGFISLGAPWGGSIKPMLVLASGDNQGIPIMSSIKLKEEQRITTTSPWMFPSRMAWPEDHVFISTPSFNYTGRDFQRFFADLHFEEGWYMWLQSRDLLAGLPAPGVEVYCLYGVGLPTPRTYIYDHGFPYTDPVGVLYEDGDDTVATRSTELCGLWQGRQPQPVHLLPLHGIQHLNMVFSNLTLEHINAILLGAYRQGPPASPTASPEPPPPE
Protocol: The acyltransferase activity of LCAT was measured by using the fluorescent sterol DHE as a substrate. DHE is integrated in the structure of discoidal synthetic HDL (sHDL) made of peptides (22A) and phospholipids (DMPC). As a consequence of the acyltransferase activity of LCAT, DHE is esterified and stored in the inner core of sHDL as DHE-ester. The esterification is responsible for a shift in the emission wavelength of DHE from 372 nm to 425 nm, allowing the exclusive detection of DHE-ester and monitoring of the reaction.
DHE-sHDL was prepared via thermal cycling. In a glass vial, DHE and DMPC dissolved in chloroform were mixed with a molar ratio of 1:9. The organic solvent was dried with Rotavapor R-200 (BUCHI, Switzerland) at room temperature. The resulting dried thin lipid layer was hydrated with assay buffer (PBS 20 mM + EDTA 1 mM) and vortexed until complete dissolution. The solution was homogenized in a water bath sonicator at room temperature until transparency. 22A peptides dissolved in assay buffer were added to the vial (lipid to protein 2:1 w/w). The solution was incubated via three heating-cooling cycles (50 °C x 3 min; 4 °C x 3 min). […] The acyltransferase activity assay was performed in 384 well low volume black microplates with a final volume of 25 µL. PAM (0.1 mg/mL in DMSO) or DMSO were incubated with LCAT (5 µg/mL in assay buffer + 60 µM albumin (Merck)) 1:100 v/v at 37 °C gently shaken. After 30 min incubation, 10 µL of each reaction (LCAT + DMSO or LCAT + PAM) was added to the plate. To start the reaction, 10 µL of DHE-sHDL solution were added in the wells. The plate was incubated for 1 h at 37 °C gently shaken. Reactions were stopped by the addition of 5 µL of stop solution (assay buffer + 5 units/mL cholesterol oxidase COx + 7% Triton X-100). Plates went through a second round of incubation at 37 °C gently shaken for 1 h to extinguish the residual fluorescence of unesterified DHE. […] DHE-ester fluorescence was detected at an excitation wavelength of 325 nm and an emission wavelength of 425 nm using Varioskan LUX. Reactions without LCAT were used for background subtraction, while reactions without LCAT and stop solution without COx were used to generate a standard curve for DHE (λex 325 nm, λem 372 nm). Reactions were performed in triplicates with three independent experiments. Due to the light sensitivity of DHE, samples were protected from light during the entire preparation and assay. Data was processed via background subtraction, divided by the slope of the standard curve to obtain the amount of DHE-esters in every well and then divided further by the reaction time to determine the rate. The acyltransferase activity (DHE-ester formed) was plotted as a function of the DHE concentration. Data were fitted to the Michaelis-Menten kinetic equation by non-linear regression. Apparent Vmax and Km were calculated using OriginPro 2021b software, while acyltransferase efficiency of each PAM was calculated by dividing kcat by Km. […] The acyltransferase activities of our PAMs were compared to the reference compound A (Supplementary Fig. 2).
PAMs were diluted in DMSO reaching a final concentration of 0.001, 0.01, 0.1, 1 and 10 µM in the wells. Reactions were conducted exactly as above, using the same LCAT concentration and the same volumes. The experiment was performed in triplicate with three independent experiments. Fluorescence signals were processed via background subtraction (DHE-sHDL + buffer + stop solution), divided by the slope of the standard curve to obtain the amount of DHE-esters in every well and then divided further by the reaction time to determine the rate. Data were normalized against no PAM control (LCAT + DMSO). The acyltransferase activity (DHE-ester formed) was plotted as a function of the PAM concentration.

LCAT [2] = target: T1, LCAT; assay: MUP based phospholipase assay; type: biochemical; design: 6x histidine-tag (C); made in house; host or cells: 293T cells (ATCC CRL-3216); details: for phospholipase efficiency: kcat divided by Km; for increase of phospholipase Vmax / increase of phospholipase efficiency: versus LCAT without compounds
Protocol: The phospholipase activity of LCAT was evaluated by using MUP as a substrate. The reaction was monitored with the increased fluorescence signal due to the formation of the reaction product MU. The assay was performed at room temperature in reaction buffer (0.1 M sodium phosphate buffer, pH 7.4). 55 µL of LCAT in reaction buffer (0.01 mg/mL) were incubated at 37 °C gently shaken with 0.41 µL of PAM (2 mg/mL in DMSO) or DMSO. After 1 h incubation, 2 µL of each reaction (LCAT + DMSO, LCAT + PAM, reaction buffer + PAM) was added to a black 384 well microplate, low volume (Corning). A MUP stock solution 1 mg/mL in DMSO + 3% Triton X-100 was diluted in a reaction buffer to 0, 10, 40, 60 and 120 µM. 18 µL of each dilution was added to the plate to start the reaction. The MUP stock solution was diluted immediately before use due to the self-hydrolysis of MUP to MU in aqueous buffers. The phospholipase activity of LCAT was monitored by fluorescence signal using Varioskan LUX (Thermo Scientific) plate reader at an excitation wavelength of 340 nm and an emission wavelength of 460 nm every 10 min for 60 min. Background signal due to MUP self-hydrolysis was subtracted from each result. Reactions were performed in triplicates with three independent experiments. Reaction rates were obtained by dividing the data by the assay time. To calculate the amount of MU produced in each reaction, a standard curve was generated from a MU stock solution 100 mM in DMSO and diluted further in reaction buffer. The phospholipase activity (MU mM) was plotted as a function of the MUP concentration. Data were fitted to the Michaelis-Menten kinetic equation by non-linear regression. Apparent Vmax and Km were calculated with OriginPro 2021b (MA, USA) software (version 9.8.5.212), while phospholipase efficiency of each PAM was calculated by dividing kcat by Km. The absence of fluorescence interference coming from PAMs was checked at an excitation wavelength of 340 nm before starting the assay (Supplementary Fig. 3). The phospholipase activities of our PAMs were compared to a positive control compound A (Supplementary Fig. 2)[17].

[3] = cited from earlier work
LCAT [4] = target: T1, LCAT; design: method as in PMID 4214409; details: blood of diabetes patients before and after insulin treatment; cited from earlier work
LCAT [5] = system: LCAT; design: method as in PMID 30479275; details: MUP assay; cited from earlier work
[6] = design: method as in PMID 9827549, PMID 19110406; details: cited from earlier work
[7] = DHE 50 µM, PAM concentration varied
[8] = PAM 3 µM, DHE concentration varied, mean ± SEM
[9] = MUP concentration varied, mean ± SEM
[10] = DHE 50 µM, PAM concentration varied, mean ± SEM of triplicate, read-out: acyltransferase EC50
[11] = PAM 3 µM, versus LCAT without compounds

| SMILES | increase of LCAT acyltransferase activity (LCAT [1]; [7]) | acyltransferase Vmax (LCAT [1]; [8]) [µM h^− 1] | acyltransferase efficiency (LCAT [1]; PAM 3 µM) [µM⁻¹ h⁻¹] | phospholipase Vmax (LCAT [2]; [9]) [µM h^− 1] | phospholipase efficiency (LCAT [2]) [µM⁻¹ h⁻¹] | EC50 (LCAT [1]; [10]) [nM] | improvement of acyltransferase efficiency (LCAT [1]; [11]) | Emax (LCAT [1]; DHE 50 µM) [%] | further results |
| --- | --- | --- | --- | --- | --- | --- | --- | --- | --- |
| COC(=O)Nc1nc2ccc(C(=O)c3ccccc3)cc2[nH]1 [mebendazole] | no effect | 6.58 ± 0.26 | 18.92 ± 2.45 | 7.95 ± 1.90 | 6.28 ± 1.06 |  |  |  | effect on acyltransferase activity at 21.6 µM DHE (LCAT [1]; 21.6 µM DHE, PAM 3 µM): inhibited activity slightly; acyltransferase EC50 (LCAT [1]; DHE 50 µM, PAM concentration varied, mean ± SEM of triplicate): no effect; acyltransferase Emax (LCAT [1]; DHE 50 µM): no effect |
| Cc1ccc([C@@H]2O[C@H](CO)[C@@H](O)[C@H](O)[C@H]2O)cc1Cc1ccc(-c2ccc(F)cc2)s1 [canagliflozin] | 150% | 14.78 ± 0.34 | 44.46 ± 2.43 | 15.70 ± 0.66 | 34.63 ± 0.97 | 80 ± 20 | roughly 100% |  | acyltransferase Emax (LCAT [1]; DHE 50 µM): 254.34±23.72%; Km (LCAT [1]; [8]): 8.37 ± 0.57 µM; increase of acyltransferase Vmax (LCAT [1]; [11]): 70%; bound to proteins in plasma [3]: 99%; Km (LCAT [2]; [9]): 22.7 ± 0.95 µM; increase of phospholipase Vmax (LCAT [2]): 130%; increase of phospholipase efficiency (LCAT [2]): 340% |
| O=C1c2c(O)cc(O)cc2OC(c2ccc(O)c(O)c2)C1O (stereo not shown) [taxifolin] | roughly 100% | 13.55 ± 0.67 | 22.69 ± 1.94 | 10.71 ± 0.49 | 19.60 ± 0.01 | 120 ± 40 |  | 211 ± 21.4 |  |
| OC[C@H]1OC(O)[C@H](O)[C@@H](O)[C@@H]1O (stereo partly shown) [glucose] |  |  |  |  |  |  |  |  | activation of LCAT (LCAT [4]): cannot activate LCAT |
| CCOc1ccc(Cc2cc([C@@H]3O[C@H](CO)[C@@H](O)[C@H](O)[C@H]3O)ccc2Cl)cc1 [dapagliflozin] | roughly 100% | 12.13 ± 0.46 | 31.54 ± 2.93 | 11.68 ± 1.15 | 12.82 ± 2.80 | 80 ± 40 |  | 196 ± 13.4 | bound to proteins in plasma [3]: 91%; increase of phospholipase Vmax (LCAT [2]): 70% |
| N#Cc1cnc(N2CCC(c3n[nH]c4c3C(O)(C(F)(F)F)CC(=O)N4)CC2)cc1C(F)(F)F (stereo not shown) [1b] |  |  |  |  |  |  |  |  | phospholipase activity compared to LCAT (LCAT [5]): 230% |
| O=c1cc(-c2ccc(O)c(O)c2)oc2cc(O)cc(O)c12 [luteolin] | roughly 100% | 11.71 ± 0.43 | 36.95 ± 2.13 | 10.91 ± 1.50 | 17.11 ± 4.72 | 100 ± 10 | roughly 100% | 191 ± 16.1 |  |
| OC[C@H]1O[C@@](CO)(O[C@H]2O[C@H](CO)[C@@H](O)[C@H](O)[C@H]2O)[C@@H](O)[C@@H]1O [sucrose] | roughly 100% | 11.18 ± 0.80 | 38.88 ± 9.05 | 8.79 ± 0.81 | 22.43 ± 4.38 |  | roughly 100% | 176 ± 12.5 | EC50 (LCAT [1]): 120 ± 60 nM; increase of phospholipase efficiency (LCAT [2]): 180%; oral bioavailability [6]: poor |
